From ChEMBL document CHEMBL3132769, “Fragment growing to retain or alter the selectivity of anchored kinase hinge-binding fragments” (Medchemcomm, 2014)

Assays:
[1] = biological target: Serine/threonine-protein kinase MARK1 (Homo sapiens) (UniProt Q9P0L2); test: Inhibition of human full length MARK1 expressed in baculovirus assessed as substrate phosphorylation using fluorescence-labelled peptides as substrate at 1000 uM after 90 mins by microfluidic peptide phosphorylation assay
[2] = test system: Tyrosine-protein kinase ABL1 (Homo sapiens), P00519 [H396P]; test: Inhibition of human truncated ABL H396P mutant expressed in baculovirus assessed as substrate phosphorylation using fluorescence-labelled peptides as substrate at 0.06 uM after 90 mins by microfluidic peptide phosphorylation assay
[3] = biological target: T1, Inhibitor of nuclear factor kappa-B kinase subunit beta (Homo sapiens) (UniProt O14920); test: Inhibition of human full length IKK beta expressed in baculovirus assessed as substrate phosphorylation using fluorescence-labelled peptides as substrate at 0.06 uM after 90 mins by microfluidic peptide phosphorylation assay
T1 sequence (whole entry): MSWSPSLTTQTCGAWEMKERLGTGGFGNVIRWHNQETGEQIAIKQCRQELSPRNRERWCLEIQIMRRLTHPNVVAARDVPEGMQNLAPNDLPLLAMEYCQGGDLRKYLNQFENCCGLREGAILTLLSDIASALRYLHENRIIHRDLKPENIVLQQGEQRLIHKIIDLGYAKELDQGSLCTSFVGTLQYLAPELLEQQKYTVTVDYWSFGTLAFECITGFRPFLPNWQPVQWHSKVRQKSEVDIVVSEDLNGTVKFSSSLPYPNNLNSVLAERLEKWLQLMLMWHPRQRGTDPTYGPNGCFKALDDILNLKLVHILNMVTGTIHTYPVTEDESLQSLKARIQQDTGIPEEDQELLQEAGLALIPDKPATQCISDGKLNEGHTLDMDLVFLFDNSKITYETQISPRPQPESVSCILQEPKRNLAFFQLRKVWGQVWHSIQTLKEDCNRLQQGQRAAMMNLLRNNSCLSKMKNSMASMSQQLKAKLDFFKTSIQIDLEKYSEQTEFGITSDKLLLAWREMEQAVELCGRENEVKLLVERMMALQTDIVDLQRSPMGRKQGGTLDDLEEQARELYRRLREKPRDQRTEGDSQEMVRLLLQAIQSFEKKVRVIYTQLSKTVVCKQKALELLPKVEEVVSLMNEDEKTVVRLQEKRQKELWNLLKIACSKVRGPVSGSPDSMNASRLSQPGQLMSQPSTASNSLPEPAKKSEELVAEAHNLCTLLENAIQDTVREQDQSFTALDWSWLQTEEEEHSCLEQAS

[4] = biological target: T2, Aurora kinase A (Homo sapiens) (UniProt O14965); test: Inhibition of human full length AurA expressed in baculovirus assessed as substrate phosphorylation using fluorescence-labelled peptides as substrate at 0.06 uM after 90 mins by microfluidic peptide phosphorylation assay
T2 sequence (whole entry): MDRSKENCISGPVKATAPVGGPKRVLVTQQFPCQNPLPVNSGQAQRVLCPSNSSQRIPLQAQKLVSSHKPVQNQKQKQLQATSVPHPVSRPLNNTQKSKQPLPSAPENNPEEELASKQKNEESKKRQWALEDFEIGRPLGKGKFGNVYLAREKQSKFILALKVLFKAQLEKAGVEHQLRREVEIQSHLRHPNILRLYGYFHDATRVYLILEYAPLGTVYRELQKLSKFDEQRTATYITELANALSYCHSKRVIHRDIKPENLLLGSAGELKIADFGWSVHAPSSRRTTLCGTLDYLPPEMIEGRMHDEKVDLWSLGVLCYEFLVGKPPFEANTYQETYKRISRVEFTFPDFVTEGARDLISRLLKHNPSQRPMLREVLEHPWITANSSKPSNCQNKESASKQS

[5] = test system: T3, Receptor-type tyrosine-protein kinase FLT3 (Homo sapiens), P36888 [D835Y]; test: Inhibition of human FLT3 D835Y mutant catalytic domain expressed in baculovirus assessed as substrate phosphorylation using fluorescence-labelled peptides as substrate at 420 uM after 90 mins by microfluidic peptide phosphorylation assay
T3 sequence (whole entry): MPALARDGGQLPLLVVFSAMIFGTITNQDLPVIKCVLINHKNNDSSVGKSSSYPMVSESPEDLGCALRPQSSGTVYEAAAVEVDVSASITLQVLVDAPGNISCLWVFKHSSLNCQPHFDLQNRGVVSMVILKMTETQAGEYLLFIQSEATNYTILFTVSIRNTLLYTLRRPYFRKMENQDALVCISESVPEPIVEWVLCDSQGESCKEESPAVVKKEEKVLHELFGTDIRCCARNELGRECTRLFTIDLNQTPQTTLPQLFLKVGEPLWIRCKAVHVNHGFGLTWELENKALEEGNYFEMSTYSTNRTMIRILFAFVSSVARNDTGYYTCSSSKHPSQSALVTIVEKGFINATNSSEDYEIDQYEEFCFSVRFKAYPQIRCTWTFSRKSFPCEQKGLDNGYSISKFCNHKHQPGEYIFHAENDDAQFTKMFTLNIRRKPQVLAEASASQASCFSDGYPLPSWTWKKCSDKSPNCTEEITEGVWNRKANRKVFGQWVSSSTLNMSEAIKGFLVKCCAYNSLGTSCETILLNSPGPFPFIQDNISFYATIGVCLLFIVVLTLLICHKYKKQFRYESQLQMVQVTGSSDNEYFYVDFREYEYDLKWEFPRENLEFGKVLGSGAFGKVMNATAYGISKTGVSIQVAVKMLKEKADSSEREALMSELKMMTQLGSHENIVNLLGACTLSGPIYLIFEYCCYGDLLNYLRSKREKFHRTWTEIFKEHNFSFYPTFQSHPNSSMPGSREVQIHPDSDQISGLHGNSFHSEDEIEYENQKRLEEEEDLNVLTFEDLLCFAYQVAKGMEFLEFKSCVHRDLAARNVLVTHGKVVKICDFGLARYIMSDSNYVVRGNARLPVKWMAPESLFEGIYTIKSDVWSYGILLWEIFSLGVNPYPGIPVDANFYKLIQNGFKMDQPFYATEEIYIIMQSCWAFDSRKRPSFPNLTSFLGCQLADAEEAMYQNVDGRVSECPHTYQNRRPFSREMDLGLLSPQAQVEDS

[6] = biological target: Serine/threonine-protein kinase MARK1 (Homo sapiens) (UniProt Q9P0L2); test: Inhibition of human full length MARK1 expressed in baculovirus assessed as substrate phosphorylation using fluorescence-labelled peptides as substrate at 420 uM after 90 mins by microfluidic peptide phosphorylation assay
[7] = biological target: Protein kinase C delta type (Homo sapiens) (UniProt Q05655); test: Inhibition of human truncated PKC delta expressed in baculovirus assessed as substrate phosphorylation using fluorescence-labelled peptides as substrate at 9 uM after 90 mins by microfluidic peptide phosphorylation assay
Sequence of Protein kinase C delta type (Homo sapiens) (Q05655 whole entry, looked up, the tested form may be a part): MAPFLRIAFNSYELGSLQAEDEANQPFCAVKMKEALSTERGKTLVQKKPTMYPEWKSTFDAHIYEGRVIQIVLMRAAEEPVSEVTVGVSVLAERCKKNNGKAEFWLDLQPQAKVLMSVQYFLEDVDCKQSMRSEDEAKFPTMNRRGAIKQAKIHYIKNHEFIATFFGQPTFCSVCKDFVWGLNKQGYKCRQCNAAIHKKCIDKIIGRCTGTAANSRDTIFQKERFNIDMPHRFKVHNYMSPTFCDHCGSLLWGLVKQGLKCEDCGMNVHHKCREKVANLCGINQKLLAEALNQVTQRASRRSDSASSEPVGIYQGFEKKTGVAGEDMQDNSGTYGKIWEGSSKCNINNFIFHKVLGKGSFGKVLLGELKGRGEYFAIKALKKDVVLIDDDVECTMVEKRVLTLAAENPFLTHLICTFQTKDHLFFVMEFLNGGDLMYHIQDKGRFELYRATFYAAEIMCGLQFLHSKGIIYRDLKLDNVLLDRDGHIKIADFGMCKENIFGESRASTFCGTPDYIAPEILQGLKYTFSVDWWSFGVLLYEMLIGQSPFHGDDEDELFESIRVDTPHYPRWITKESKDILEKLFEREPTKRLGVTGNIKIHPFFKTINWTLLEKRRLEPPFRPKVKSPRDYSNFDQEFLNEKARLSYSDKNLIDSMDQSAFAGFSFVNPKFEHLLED

Sequence of Serine/threonine-protein kinase MARK1 (Homo sapiens) (Q9P0L2 whole entry, looked up, the tested form may be a part): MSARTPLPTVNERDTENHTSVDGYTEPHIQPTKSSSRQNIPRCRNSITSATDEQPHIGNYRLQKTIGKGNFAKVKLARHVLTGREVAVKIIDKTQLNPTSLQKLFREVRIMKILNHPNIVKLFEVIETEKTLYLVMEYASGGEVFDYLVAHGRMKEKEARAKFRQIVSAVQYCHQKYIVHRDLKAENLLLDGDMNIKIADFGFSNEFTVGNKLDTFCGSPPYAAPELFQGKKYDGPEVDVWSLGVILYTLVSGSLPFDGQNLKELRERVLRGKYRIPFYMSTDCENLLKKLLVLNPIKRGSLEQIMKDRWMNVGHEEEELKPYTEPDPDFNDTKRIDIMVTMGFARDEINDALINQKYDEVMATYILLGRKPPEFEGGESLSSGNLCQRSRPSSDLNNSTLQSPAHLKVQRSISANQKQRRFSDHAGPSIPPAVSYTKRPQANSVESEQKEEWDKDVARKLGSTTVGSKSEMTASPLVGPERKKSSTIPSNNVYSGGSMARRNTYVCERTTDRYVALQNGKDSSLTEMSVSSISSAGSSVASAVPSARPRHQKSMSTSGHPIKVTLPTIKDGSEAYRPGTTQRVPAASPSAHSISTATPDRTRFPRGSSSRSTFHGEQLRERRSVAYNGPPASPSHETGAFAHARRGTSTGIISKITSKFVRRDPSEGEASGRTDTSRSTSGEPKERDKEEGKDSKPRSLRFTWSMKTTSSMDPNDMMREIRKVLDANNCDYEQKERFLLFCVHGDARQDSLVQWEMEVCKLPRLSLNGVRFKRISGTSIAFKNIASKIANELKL

With c1cnc2[nH]ccc2c1 the inhibition [1] was 93.5%.

NC1(Cc2ccc(Cl)cc2)CCN(c2ncnc3[nH]ccc23)CC1 showed an inhibition [2] of 0.5%, an inhibition [3] of 2% and an inhibition [4] of 7.5%.

Compound c1nc(N2CCOCC2)c2nc[nH]c2n1 has an inhibition [5] of 93% and an inhibition [6] of 4.5%.

Compound NCC1CN(c2ncnc3[nH]c4cnccc4c23)CCO1 (configuration not stated) has an inhibition [7] of 37.5%.
